Source: patent US12697325B2 (TENNOR THERAPEUTICS (SUZHOU) LIMITED, priority 2021, dated 2026)
Read-outs that look alike come from different tables or passages of the source.

Experiments:
[1] = tested on: Acinetobacter baumannii strains; experiment: Minimum inhibitory concentration (CLSI M07), Example 2, 20 strains; assay type: cell-based; conditions: for MIC: read-out: MIC
Method: The minimum inhibitory concentration (MIC) was determined in accordance with the requirements of the Clinical and Laboratory Standards Institute (CLSI) M07 (for aerobic bacteria).
3.1 The compounds were diluted with DMSO up to 100 times of the highest concentration tested.
The steps of manual dilution are as follows (example): firstly, the compound or antibiotic was diluted to 100 times of the maximum final concentration tested, then 60 μL of compound mother liquor was added to the first column of the 96-well plate, and 30 μL of DMSO was added to each well in the second to the 12th column; 30 μL of the liquid was transferred from the first column to the second column. After being pipetted up and down to even, 30 μL was transferred to the third column, and was diluted in sequence at a 2-fold gradient for a total of 10 times; then 30 μL was removed from each well in the 11th column, then a compound solution diluted at 2-fold gradient was obtained and 1 μL was transferred to a 96-well test plate.
Aerobic bacteria: the strains were inoculated on MHA one day in advance and incubated overnight at 37° C. On the day of the assay, 5-6 single colonies were picked and suspended evenly in saline, and the bacterial concentration was adjusted to the turbidity of 0.5 McFarland standard (concentration is about 1×10^8 CFU/mL). The bacterial suspension was diluted at 200-fold with the corresponding liquid culture medium (Table 1), i.e., the bacterial concentration was ~5×10^5 CFU/ml, and then 100 μL of the liquid was transferred to a 96-well round bottom plate (the 96-well plate with compound prepared in 4.2, Echo method) to obtain the test plate. If the compound was manually diluted, then 99 μL of the solution was transferred into a 96-well round bottom plate. The 96-well round bottom plate obtained above was placed into an incubator at 37° C. and 85% humidity to incubate for 20 h.

[2] = Pharmacokinetics in plasma and bronchoalveolar lavage fluid of female CD-1 mice; assay type: in vivo; conditions: mouse, female CD-1 mice
Method: An appropriate amount of the test drug was accurately weighed and mixed with the appropriate volume of vehicle (5% DMSO+0.5% Tween 80 in normal saline) to obtain a clear solution for the test in Table 9. The formulation solution for injection was prepared to sterile filtration through a 0.22 μm filter prior to administration. The mice were dosed with the drug within 30 min after the formulated solution for injection was prepared. A 1.5 mL of the formulation solution for injection was transferred into a polypropylene microcentrifuge tube for dose verification by LC/UV or LC-MS/MS.
All blood samples were transferred to pre-frozen EDTA-K2 tubes and placed on wet ice until centrifugation. […]
Plasma: approximately 100 μL of blood sample was transferred into pre-cooled commercial EDTA-K2 tubes and placed on wet ice until centrifugation. After the blood samples were centrifuged at approximately 4° C. and 3, 200 g for 10 min, plasma was collected and transferred to pre-labeled 96-well plates or polypropylene tubes, flash frozen on dry ice, and stored at ≤−60° C. until the analysis by LC-MS/MS.
Serum: approximately 100 μL of blood sample was transferred into a tube without anticoagulant and placed on wet ice for approximately 30 min and centrifuged at 4° C. and 3,000 g for 10 min, and the serum was collected and transferred into pre-labeled PP tubes placed on wet ice. After the completion of all the collections, serum samples were stored at −60° C. until being sent to the animal experimental team to determine urea concentration.
Bronchoalveolar lavage fluid (BALF): pre-cooled tracheo-alveolar lavage fluid was injected into the trachea or predefined bronchi. After a full expansion of the lung tissue, the lavage fluid was slowly drawn out with a syringe 30 s later. The lung was lavaged three times. During the last lavage, the lung tissue was gently squeezed to restore the fluid. To prevent contamination of other lung tissues, the corresponding bronchi were ligated. Both lungs of the mice were perfused with 0.8 mL.
[…] Approximately 200 μL of the BALF samples were transferred into a polypropylene tube, rapidly frozen on dry ice, maintained at ≤−60° C., and sent to the animal experimental team to determine urea concentration. The remaining BALF samples (approximately 600 μL) were rapidly frozen on dry ice and maintained at ≤−60° C. until being submitted for drug concentration analysis by LC-MS/MS.

- MIC ([1]; Acinetobacter baumannii, ATCC17978, strain ATCC 17978): 8 µg/mL
- MIC ([1]; Acinetobacter baumannii, ATCC19606, strain ATCC 19606): 2 µg/mL
- MIC ([1]; Acinetobacter baumannii, ATCCBAA1605, strain ATCC-BAA-1605): 32 µg/mL
- MIC ([1]; Acinetobacter baumannii, ATCCBAA1789, strain ATCC-BAA-1789): 4 µg/mL
- MIC ([1]; Acinetobacter baumannii, ATCCBAA1790, strain ATCC-BAA-1790): 16 µg/mL
- MIC ([1]; Acinetobacter baumannii, ATCCBAA1791, strain ATCC-BAA-1791): 8 µg/mL
- MIC ([1]; Acinetobacter baumannii, ATCCBAA1792, strain ATCC-BAA-1792): 32 µg/mL
- MIC ([1]; Acinetobacter baumannii, ATCCBAA1793, strain ATCC-BAA-1793): 32 µg/mL
- MIC ([1]; Acinetobacter baumannii, ATCCBAA1794, strain ATCC-BAA-1794): 8 µg/mL
- MIC ([1]; Acinetobacter baumannii, ATCCBAA1795, strain ATCC-BAA-1795): 64 µg/mL
- MIC ([1]; Acinetobacter baumannii, ATCCBAA1796, strain ATCC-BAA-1796): 16 µg/mL
- MIC ([1]; Acinetobacter baumannii, ATCCBAA1797, strain ATCC-BAA-1797): 8 µg/mL
- MIC ([1]; Acinetobacter baumannii, ATCCBAA1798, strain ATCC-BAA-1798): 16 µg/mL
- MIC ([1]; Acinetobacter baumannii, ATCCBAA1799, strain ATCC-BAA-1799): 64 µg/mL
- MIC ([1]; Acinetobacter baumannii, ATCCBAA1800, strain ATCC-BAA-1800): 32 µg/mL
- MIC ([1]; Acinetobacter baumannii, strain ARLG-1791): 32 µg/mL
- MIC ([1]; Acinetobacter baumannii, strain ARLG-1809): 32 µg/mL
- MIC ([1]; Acinetobacter baumannii, strain ARLG-1852): 16 µg/mL
- MIC ([1]; Acinetobacter baumannii, strain ARLG-1853): 32 µg/mL
- MIC ([1]; Acinetobacter baumannii, strain ARLG-1881): 128 µg/mL
- MIC50 ([1]; Acinetobacter baumannii, Example 2, 20 strains, read-out: MIC50): 32 µg/mL
- MIC90 ([1]; Acinetobacter baumannii, Example 2, 20 strains, read-out: MIC90): 64 µg/mL
- MIC range ([1]; Example 2, 20 strains): 2 to 128 µg/mL
- MIC of this strain BAA-1795 (component in the combination) ([1]; strain BAA-1795): 8 µg/mL
- MIC of the strain BAA-1795 (component in the combination) ([1]; strain BAA-1795, sulbactam/avibactam 4:1, concentration of the named component): 8 µg/mL
- Kp ([2]; BALF/plasma, intravenous, 150 mg/kg, BALF column, read-out: AUC Ratio): 0.0248
- AUC(0-t) ([2]; bronchoalveolar lavage fluid (BALF), intravenous dripping 150 mg/kg, BALF, read-out: AUC0-last, BALF): 1310 ng·h/mL
- Cmax ([2]; bronchoalveolar lavage fluid (BALF), intravenous dripping 150 mg/kg, BALF, read-out: Cmax, mean BALF concentration): 617 ng/mL
- MRT last ([2]; bronchoalveolar lavage fluid (BALF), intravenous dripping 150 mg/kg, BALF, read-out: MRT0-last, BALF): 103 min
- half-life ([2]; bronchoalveolar lavage fluid (BALF), intravenous dripping 150 mg/kg, BALF, read-out: T1/2, BALF (converted)): 43.5 min
- Tmax ([2]; bronchoalveolar lavage fluid (BALF), intravenous dripping 150 mg/kg, BALF, read-out: Tmax, BALF): 180 min
- clearance ([2]; intravenous dripping 150 mg/kg, plasma): 47.2 mL/min/kg
- AUC(0-t) ([2]; intravenous dripping 150 mg/kg, plasma, read-out: AUC0-last, plasma): 52900 ng·h/mL
- Cmax ([2]; intravenous dripping 150 mg/kg, plasma, read-out: Cmax, mean plasma concentration): 19600 ng/mL
- MRT last ([2]; intravenous dripping 150 mg/kg, plasma, read-out: MRT0-last, plasma): 26.4 min
- half-life ([2]; intravenous dripping 150 mg/kg, plasma, read-out: T1/2, plasma (converted)): 52.4 min
- Tmax ([2]; intravenous dripping 150 mg/kg, plasma, read-out: Tmax, plasma): 60 min
- Vd ([2]; intravenous dripping 150 mg/kg, plasma, read-out: Vdss): 1.26 L/kg
Compound: CC1(C)[C@H](C(=O)[O][Na+])N2C(=O)C[C@H]2S1(=O)=O [Sulbactam sodium, sulbactam sodium]
